Usually IC50 stands for the point on the concentration scale where inhibition reaches its midpoint. For orientation: MIC means the smallest concentration in the dilution series that meets the test's criterion for growth inhibition.

Values after ≈ are worked out from the molar mass of the structure shown. Like-named read-outs stand apart in the source and are kept apart here.

Series [1] concerns B16 murine melanoma cell line. Conditions: cited from earlier work; for TI: 48 h; for IC50: B16, 48 h.
For series [2], the system named is S. aureus 25923. Conditions: S. aureus 25923, biofilm; cited from earlier work.
Series [3] relates to E. coli 25922. To be noted: E. coli 25922, biofilm; cited from earlier work.
In series [4] the test system is MRSA 388. To be noted: MRSA 388, biofilm; cited from earlier work.
Series [5] relates to P. aeruginosa 27853. To be noted: P. aeruginosa 27853, biofilm; cited from earlier work.
In series [6] the test system is P. aeruginosa 27853. Conditions: cited from earlier work.
The test system of series [7] is S. aureus 25923. To be noted: cited from earlier work.
The subject of series [8] is MRSA 388. To be noted: cited from earlier work.
In series [9] the test system is E. coli 25922. Conditions: cited from earlier work.
Series [10] deals with BJ normal cell line (human fibroblast cells). Kind of series: MTT cell viability assay, BJ normal cells. The class given is cell-based. Conditions: range of tested concentrations, 24 h and 48 h. As for the experimental part:
(§1) Human fibroblast cells (BJ—ATCC CRL-2522, USA) were grown in minimal essential medium (MEM) supplemented with 2 mM L-Glutamine, 10% fetal calf serum (FCS), 100 units/mL of penicillin, and 100 µg/mL of streptomycin at 37 °C in a humidified incubator under an atmosphere containing 5% CO2. Mouse melanoma cells (B16—ATCC CRL—6475, USA) were grown in DMEM (Dulbecco’s Modified Eagle Medium) supplemented with similar reagents as MEM. All cell cultivation media and reagents were purchased from Biochrom AG (Berlin, Germany) and Sigma-Aldrich (Darmstadt, Germany).
(§2) Cell viability was evaluated using 3-(4,5-dimethylthiazol-2-yl)-2,5-diphenyltetrazolium bromide (MTT) assay as described previously. First, the cells were seeded in 96-well plates (20000 cells/well) and cultured for 24 h in medium. […] The negative control was represented by cells cultivated in a medium without the investigated compounds. Following incubation, the medium was changed, and the MTT solution was added to each well to a final concentration of 1 mg/mL and incubated for an additional 4 h, at 37 °C. Finally, the medium was collected, and DMSO was used to dissolve the insoluble formazan product. The absorbance of the samples was recorded at 570 nm using a plate reader Mithras 940 (Berthold). The data were corrected for the background, and the percentage of viable cells was obtained using the equation:Cell viability = [(A570 of treated cells)/(A570 of untreated cells)] × 100%(1)
(§3) The half-maximal inhibitory concentration (IC50) was determined by fitting the data with a sigmoidal logistical equation using the software Origin 8.1 (Microcal Inc., Los Angeles, CA, USA).

Series [11] relates to B16 murine melanoma cell line. Put plainly: MTT cell viability assay, B16 melanoma cells. The format is cell-based, mouse. Conditions: 24 h and 48 h. As for the experimental part:
as §1, §2, §3

Series [12] concerns B16 cells. Put plainly: Cell morphology by fluorescence microscopy (phalloidin staining), B16 cells. The class given is cell-based, mouse. Conditions: 2.5 µg/mL (2.84 μM and 2.76 μM for the complexes), 24 h. As for the experimental part: (§4) The morphological changes induced by the treatment of the BJ and B16 cell lines with the tested compounds at two different concentrations (2.5 and 10 µg/mL) applied for 24 h were investigated by fluorescence microscopy.
(§5) According to the manufacturer protocol, the cytoskeleton actin filaments of BJ and B16 cells were stained with phalloidin-FITC (Sigma-Aldrich, St. Louis, MO, USA). Briefly, cells were washed with PBS (5 min, 3 times), fixed for 5 min with 3% paraformaldehyde, washed three times with PBS, permeabilized with 0.1% Triton X-100 in PBS for 15 min, washed three times with PBS, stained with 20 μg/mL phalloidin-FITC at room temperature for 1 h and rewashed three times with PBS. The cell nucleus was stained with 8 μM of Hoechst 33342 solution for 10 min, washed three times with PBS, and finally, mounted and sealed on glass slides with FluorSave™ Reagent (Merck Millipore, Germany). The fluorescence images were acquired using an Andor DSD2 Confocal Unit (Andor, Ireland), mounted on an epifluorescence microscope, Olympus BX-51 (Olympus, Germany), equipped with a 40x and 100x objective and an appropriate DAPI/Hoechst filter cube (excitation filter 390/40 […], dichroic mirror 405 nm and emission filter 452/45 nm) and GFP/FITC filter cube (excitation filter 466/40 nm, dichroic mirror 488 nm and emission filter 525/54 nm).

Series [13] has as its system E. coli 25922. Kind of series: Biofilm formation on polystyrene (crystal violet), MBEC. The class given is cell-based, Escherichia coli. To be noted: E. coli 25922, biofilm. As for the experimental part:
(§6) The antibacterial assays were carried out using two Gram-negative (Escherichia coli ATCC 25922, Pseudomonas aeruginosa ATCC 27853) and two Gram-positive (Staphylococcus aureus ATCC 25923, MRSA (meticillin-Resistant S. aureus) 388 (ATCC, American Type Culture Collection) bacteria.
(§7) The method for assessment of biofilm formation on polystyrene microtiter plates was based on previously published protocols. The absorbance at 490 nm was measured with an Apollo LB 911ELISA (Berthold Technologies GmbH & Co. KG, Waltham, MA, USA) reader. The minimal biofilm-eradication concentration (MBEC) was defined as the lowest concentration of antibiotics required to eradicate the biofilm. All experiments were performed in triplicate.

Series [14] has as its system MRSA 388. Put plainly: MIC by broth microdilution. The format is cell-based, Staphylococcus aureus. To be noted: Staphylococcus aureus; MRSA 388, planktonic; read-out: MIC. As for the experimental part:
as §6
(§8) The antimicrobial activity of the two complexes (1) and (2) was assessed using their minimum inhibitory concentration (MIC) by the broth microdilution method, as previously described by the Clinical and Laboratory Standard Institute (CLSI; M07-A9 document). A broth microdilution assay was performed in sterile 96-well plates using Muller-Hinton broth (Scharlau; MHB). The compounds solubilized in […] (1,000 μg/mL) were serially diluted in 90 μL MHB, in concentrations ranging between 500 and 0.97 μg/mL. Overnight cultures were used to prepare suspension in phosphate-buffered saline (pH 7.0) to match a 0.5 McFarland density. The bacterial suspensions were further diluted to 1:100 by adding 0.1 mL of bacterial suspension to 9.9 mL of MHB. A volume of 10 μL of this dilution was added to each well of columns 1–10, containing different concentrations of the tested compounds. […] Additionally, 10 μL of the diluted bacterial suspension was added in column 11 (the growth control). A volume of 100 μL MHB was added to the microtiter plates’ sterility control wells (column 12). After inoculation, the plates were incubated at 35 ± 2 °C for 18 h. Growth was measured as light absorbance (620 nm) in comparison to an uninoculated well (negative control). It was detected using a microtiter plate reader (Apollo LB 911ELISA (Berthold Technologies GmbH & Co. KG, Waltham, MA, USA)). The MIC of each compound was defined as the lowest concentration required to inhibit bacterial growth.

In series [15] the test system is S. aureus 25923. Kind of series: MIC by broth microdilution. The format is cell-based, Staphylococcus aureus. To be noted: Staphylococcus aureus; S. aureus 25923, planktonic; read-out: MIC. As for the experimental part: as §6, §8
(Broth dilution looks for growth in wells or tubes with falling amounts of substance.)

In series [16] the test system is B16 cells. Kind of series: Lactate dehydrogenase (LDH) release assay, B16 cells. The format is cell-based, mouse. To be noted: B16, 24 h and 48 h. As for the experimental part:
(§9) Membrane integrity after peptide treatment was assessed based on LDH release using a CytoTox 96 Non-Radioactive Cytotoxicity Assay (Promega), as previously described. […] Maximal LDH release was obtained by complete cell lysis induced by using 1% of Triton X-100. The absorption resulting from LDH activity was measured in a microplate reader Mithras 940 (Berthold) at 490 nm, and the % LDH was calculated as: [(corrected absorbance of the LDH released in treated cells)/(corrected absorbance of the total LDH released)] * 100%.

In series [17] the test system is MRSA 388. Put plainly: Biofilm formation on polystyrene (crystal violet), MBEC. The format is cell-based, Staphylococcus aureus. Conditions: MRSA 388, biofilm. As for the experimental part: as §6, §7
In series [18] the test system is S. aureus 25923. Described as above. The class given is cell-based, Staphylococcus aureus. To be noted: S. aureus 25923, biofilm. As for the experimental part: as §6, §7
Series [19] has as its system BJ cells. Put plainly: Lactate dehydrogenase (LDH) release assay, BJ cells. The format is cell-based, human. To be noted: 24 h and 48 h. As for the experimental part:
as §9

Series [20] relates to P. aeruginosa 27853. Kind of series: Biofilm formation on polystyrene (crystal violet), MBEC. The class given is cell-based, Pseudomonas aeruginosa. Conditions: P. aeruginosa 27853, biofilm. As for the experimental part: as §6, §7
The subject of series [21] is P. aeruginosa 27853. Put plainly: MIC by broth microdilution. The format is cell-based, Pseudomonas aeruginosa. To be noted: Pseudomonas aeruginosa; P. aeruginosa 27853, planktonic; read-out: MIC. As for the experimental part: as §6, §8
In series [22] the test system is BJ cells. Put plainly: Cell morphology by fluorescence microscopy (phalloidin staining), BJ cells. The class given is cell-based, human. Conditions: 2.5 and 10 µg/mL, 24 h. As for the experimental part: as §4, §5
Series [23] relates to E. coli 25922. Kind of series: MIC by broth microdilution. The format is cell-based, Escherichia coli. Conditions: Escherichia coli; E. coli 25922, planktonic; read-out: MIC. As for the experimental part:
as §6, §8

As for `Cc1cc(-c2ccccc2)nc2ncnn12.[Cu+2].[O-][Cl+3]([O-])([O-])[O-].[O-][Cl+3]([O-])([O-])[O-].c1ccc(-c2ccccn2)nc1.c1ccc(-c2ccccn2)nc1` [CubPP, [Cu(bpy)2(pmtp)](ClO4)2], the TI in series [1] is listed as 3.23. The IC50 in [1] is 20 µM. Besides, the MBEC in series [2] is given as 0.80 mM; in series [3], 0.40 mM; in series [4], 0.40 mM; in series [5] it was 0.40 mM. For the same compound, the MIC in [6] is 400 µM; in series [7], 400 µM; in series [8], 400 µM; in series [9] it was 200 µM.

With `O.[Cu+2].[O-][Cl+3]([O-])([O-])[O-].[O-][Cl+3]([O-])([O-])[O-].c1cnc2c(c1)ccc1cccnc12.c1cnc2c(c1)ccc1cccnc12` [CupP, [Cu(phen)2(OH2)](ClO4)2], in [1], the TI was 0.80. In addition, in [1], the IC50 was 3.7 µM. Besides, the MBEC in series [2] is recorded as 0.03 mM; in series [3], 0.10 mM; in series [4], 0.10 mM; in series [5], 0.50 mM. For the same compound, the MIC in series [6] is 500 µM; in [7], 30 µM; in [8], 120 µM; in series [9], 30 µM.

With `Cc1cc(-c2ccccc2)nc2ncnn12.[Cu+2].[O-][Cl+3]([O-])([O-])[O-].[O-][Cl+3]([O-])([O-])[O-].c1cnc2c(c1)ccc1cccnc12.c1cnc2c(c1)ccc1cccnc12` [CupPP, [Cu(phen)2(pmtp)](ClO4)2], in series [1], the TI is listed as 0.88. For the same compound, the IC50 in [1] is 4 µM. The MBEC is reported as 0.01 mM in series [2], 0.02 mM in series [3], 0.05 mM in series [4] and 0.09 mM in series [5]. For the same compound, the MIC in [6] was 90 µM; in series [7] it was 10 µM; in [8], 50 µM; in series [9], 20 µM.

In the case of `Cc1cc(C)n2ncnc2n1` [dmtp, 5,7-dimethyl-1,2,4-triazolo[1,5-a]pyrimidine, reference compound], in [10], the “effect on viability of BJ cells” value was “did not affect the viability”. For the same compound, in [11], the “effect on viability of B16 cells” value is “did not affect the viability”. For the same compound, the “morphological changes of B16 cells” value in series [12] is reported as “not altered”. The MBEC in series [13] was determined as 8.45 mM; in [17] it was 16.90 mM; in [18] it was 8.45 mM; in [20] it was 8.45 mM. For the same compound, the MIC in series [14] came to 16900 µM (≈ 2500 µg/mL); in series [15] it was 8450 µM (≈ 1250 µg/mL); in series [21], 8450 µM (≈ 1250 µg/mL); in series [23] it was 8450 µM (≈ 1250 µg/mL). The “membrane integrity (LDH release)” value in series [16] and in [19] was “did not affect the membrane integrity” throughout. In addition, the “morphological changes of BJ cells” value in series [22] is given as “did not alter their morphology”.

Take {[Cu(bpy)2(μ2OClO3)]ClO4}n [CubP]: the TI in [1] is listed as 5.53. In [1], the IC50 is 16 µM. The MBEC in [2] was 0.14 mM; in series [3] it was 0.54 mM; in series [4] it was 0.27 mM; in series [5], 1.09 mM. Also, the MIC in series [6] is 1090 µM; in series [7] it was 270 µM; in [8], 270 µM; in series [9], 540 µM.

Values taken from article PMC8620715, “Biological Activity of Triazolopyrimidine Copper(II) Complexes Modulated by an Auxiliary N-N-Chelating Heterocycle Ligands” (Molecules, 2021).
